We go through twelve compounds from patent publication EP2322149A1, “Methods and compositions for the treatment of ischemia” (Universidad del Pais Vasco, priority 2009, dated 2011).

Entries after “also recorded” stand apart in the source; their conditions may differ. Structures can show the parent of a compound that is named as a salt.

For one experiment, the target named is T1, P2X2 (Homo sapiens, UniProt Q9UBL9).
T1 sequence (Q9UBL9 1-471): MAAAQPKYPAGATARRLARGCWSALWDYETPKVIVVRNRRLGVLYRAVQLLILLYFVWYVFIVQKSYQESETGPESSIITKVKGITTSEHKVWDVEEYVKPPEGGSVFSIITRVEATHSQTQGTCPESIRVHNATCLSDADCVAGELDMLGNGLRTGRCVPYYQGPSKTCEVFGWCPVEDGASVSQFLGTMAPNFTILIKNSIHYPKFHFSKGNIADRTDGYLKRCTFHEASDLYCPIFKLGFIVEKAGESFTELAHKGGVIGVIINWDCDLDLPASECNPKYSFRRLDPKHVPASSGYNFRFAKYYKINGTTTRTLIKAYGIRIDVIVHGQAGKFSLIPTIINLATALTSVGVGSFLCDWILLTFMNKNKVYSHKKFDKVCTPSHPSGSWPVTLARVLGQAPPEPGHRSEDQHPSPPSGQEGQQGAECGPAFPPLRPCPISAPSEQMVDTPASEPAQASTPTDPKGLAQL
The note with it: read-out: IC50 P2X2; cited from earlier work.

Experiment [1] concerns optic nerve oligodendrocytes. Nature of the experiment: Oxygen and glucose deprivation (OGD) cell death in oligodendrocyte cultures (calcein-AM). The note with it: 1h OGD, calcein 24h later; PPADS 100 µM, BBG 50 nM, CNQX 30 µM, APV 100 µM, apyrase 20 U/ml, ARL67156 100 µM, CBX 20 µM, FFA 100 µM, MFQ 1 nM. The format is cell-based, Sprague-Dawley rats. The method, then: (§1) Primary cultures of oligodendrocytes derived from optic nerves of 12 day-old Sprague-Dawley rats were obtained as previously described (Matute et al., 1997 Proc Natl Acad Sci U S A 94:8830-8835.).Cells were maintained at 37°C and 5% CO2 in a chemically defined medium (Matute et al., 1997 Proc Natl Acad Sci U S A 94:8830-8835.). After 2-4 days in vitro, cultures were composed of at least 98% 04/Ga1C^+ cells. No microglial cells were detected in these cultures. […] Cell death was determined 24h later using calcein-AM (Invitrogen) as previously described (Matute et al., 1997 Proc Natl Acad Sci U S A 94:8830-8835.). Antagonists were present during in vitro ischaemia and during the next 24h incubation period. […] To assay the levels of reactive oxygen species (ROS), cells were loaded with 40 µM 2',7'- dichlorodihyfluoresceindiacetate (DCFDA; Invitrogen) and 1 µM calcein red-orange (Molecular Probes) immediately after OGD. Calcein was used to quantify the number of cells within the reading field. Fluorescence was measured as above and values were plotted as the percentage of DCFDA/calcein red-orange fluorescence versus control. The changes in mitochondrial membrane potential were monitored with 5,5',6,6'-tetrachloro-1,1',3,3'-tetraethylbenzimidazolcarbocyanine iodide (JC-1; Molecular Probes). Immediately after OGD, cells were loaded with JC-1 (3 µM) at 37°C for 30 min. The changes in the membrane potential were calculated as the red (emission at 590)/green (emission at 520) ratio in each condition and results were normalized to control.

Experiment [2] deals with cultured optic nerve oligodendrocytes. The experiment in a line: ATP release measurement (luciferin/luciferase) in oligodendrocyte cultures after OGD. The experiment is classed as cell-based, Sprague-Dawley rats. On the procedure:
as §1
ATP levels were measured using a Luciferin/Luciferase assay kit (Invitrogen) after 1h normoxia or OGD in oligodendrocyte cultures and in isolated optic nerves according to the manufacturer's instructions. The luminescence was measured with a luminometer Synergy-HT (BioTek) with an integration time of 3 sec. Because ATP was measured in the culture medium and in the solution bathing optic nerves, the concentration of ATP at the extracellular surface, near the vicinity of the receptor was underestimated (Joseph et al., 2003. J Biol Chem 278:23331-23342). The limit of ATP detection was 1 nM and luminescence was linear with increasing ATP concentrations to 1000 nM. The total amount of ATP was calculated according to standard curves and ATP release was expressed in percentage vs control.

The next experiment relates to optic nerves. The experiment in a line: Optic nerve ischaemia (OGD), tissue damage by LDH release. Also noted: species or system rats. The note with it: P28 rat optic nerves, 1h OGD + 2h reperfusion; PPADS 1 mM, BBG 50 nM, oATP 1 mM, apyrase 20 U/ml, MFQ 1 µM, CBX 100 µM, FFA 1 mM. The method, then:
After 1h OGD at 37°C, the medium was replaced with fresh solution containing glucose and equilibrated with 95% O2, 5% CO2 and the nerves were incubated for another 2h at 37°C to simulate reperfusion.
For orientation: Release of lactate dehydrogenase indicates damage to the cell membrane.

In the next experiment the target is T2, P2X7 (Homo sapiens, UniProt Q99572).
T2 sequence (Q99572 1-595): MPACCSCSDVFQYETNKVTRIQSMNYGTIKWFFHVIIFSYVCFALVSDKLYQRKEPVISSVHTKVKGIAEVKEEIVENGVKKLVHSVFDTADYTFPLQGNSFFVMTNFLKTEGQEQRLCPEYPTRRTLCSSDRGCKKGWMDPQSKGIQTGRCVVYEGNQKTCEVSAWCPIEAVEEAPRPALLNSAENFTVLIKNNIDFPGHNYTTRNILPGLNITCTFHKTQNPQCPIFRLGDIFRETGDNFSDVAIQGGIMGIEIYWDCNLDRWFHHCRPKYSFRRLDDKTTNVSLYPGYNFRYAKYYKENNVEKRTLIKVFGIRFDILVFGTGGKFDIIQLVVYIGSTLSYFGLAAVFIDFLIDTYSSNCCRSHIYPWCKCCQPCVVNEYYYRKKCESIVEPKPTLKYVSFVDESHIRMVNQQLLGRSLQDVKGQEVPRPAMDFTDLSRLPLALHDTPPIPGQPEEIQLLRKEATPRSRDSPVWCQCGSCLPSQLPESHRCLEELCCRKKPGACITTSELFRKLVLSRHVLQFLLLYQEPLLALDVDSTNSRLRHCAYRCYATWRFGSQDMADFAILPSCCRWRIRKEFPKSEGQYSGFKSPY
The settings on record: cited from earlier work.

For a further experiment, the target named is T3, P2X1 (Homo sapiens, UniProt P51575).
T3 sequence (P51575 1-399): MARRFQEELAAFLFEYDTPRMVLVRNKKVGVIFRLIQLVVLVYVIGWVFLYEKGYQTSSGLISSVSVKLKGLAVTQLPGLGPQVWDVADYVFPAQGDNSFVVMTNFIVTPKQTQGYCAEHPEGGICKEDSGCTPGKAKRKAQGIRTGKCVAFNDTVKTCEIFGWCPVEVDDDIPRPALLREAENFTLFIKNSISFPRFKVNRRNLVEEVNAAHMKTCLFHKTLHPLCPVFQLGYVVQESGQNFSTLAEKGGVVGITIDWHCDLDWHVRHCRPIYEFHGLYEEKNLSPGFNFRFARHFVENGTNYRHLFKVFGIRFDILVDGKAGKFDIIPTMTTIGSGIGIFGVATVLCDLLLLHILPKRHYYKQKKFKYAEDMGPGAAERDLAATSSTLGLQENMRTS
The note with it: read-out: IC50 P2X1; cited from earlier work.

The target of another experiment is T4, P2X3 (Homo sapiens, UniProt P56373).
T4 sequence (P56373 1-397): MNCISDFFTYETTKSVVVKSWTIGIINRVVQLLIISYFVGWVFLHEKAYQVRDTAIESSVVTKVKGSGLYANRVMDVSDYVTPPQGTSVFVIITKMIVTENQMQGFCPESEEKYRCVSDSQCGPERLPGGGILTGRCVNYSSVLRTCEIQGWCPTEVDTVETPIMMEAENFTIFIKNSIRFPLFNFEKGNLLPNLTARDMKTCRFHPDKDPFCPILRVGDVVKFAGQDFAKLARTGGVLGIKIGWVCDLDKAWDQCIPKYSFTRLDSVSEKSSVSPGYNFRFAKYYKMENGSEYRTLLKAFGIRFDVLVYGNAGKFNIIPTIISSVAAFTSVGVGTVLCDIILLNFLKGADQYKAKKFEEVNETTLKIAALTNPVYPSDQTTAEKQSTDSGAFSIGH
The settings on record: read-out: IC50 P2X3; cited from earlier work.

The next experiment addresses P2X6 (Homo sapiens, UniProt O15547). The note with it: read-out: IC50 P2X6; cited from earlier work.

Chain of P2X6 (O15547 whole entry, species assumed): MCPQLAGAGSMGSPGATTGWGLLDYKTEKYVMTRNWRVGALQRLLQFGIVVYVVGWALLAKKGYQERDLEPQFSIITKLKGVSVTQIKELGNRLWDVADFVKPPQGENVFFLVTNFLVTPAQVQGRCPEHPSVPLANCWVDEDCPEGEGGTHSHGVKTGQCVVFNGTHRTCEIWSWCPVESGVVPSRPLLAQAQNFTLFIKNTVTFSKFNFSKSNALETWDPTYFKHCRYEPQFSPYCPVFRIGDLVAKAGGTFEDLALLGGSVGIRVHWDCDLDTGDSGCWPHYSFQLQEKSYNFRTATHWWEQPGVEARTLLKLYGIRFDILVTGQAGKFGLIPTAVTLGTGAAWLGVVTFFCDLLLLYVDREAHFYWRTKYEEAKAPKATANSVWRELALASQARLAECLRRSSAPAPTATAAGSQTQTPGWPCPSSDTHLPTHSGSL

With “1-amino-4-[[4-[[4-chloro-6-[[3 (or 4)-sulfophenyl]amino]-1,3,5-triazin-2-yl]amino]-3-sulfophenyl]amino]-9,10-dihydro-9,10-dioxo-2-anthracenesulfonic acid [RB-2]”, the IC50 (in general, the midpoint of a concentration-inhibition curve) at P2X2 is 1000 nM.
For the compound `CCN(CC)c1ncnc2c1ncn2[C@@H]1O[C@H](COP(=O)(O)OP(=O)(O)C(Br)(Br)P(=O)(O)O)[C@@H](O)[C@H]1O` [ARL67156], the “OGD-induced oligodendrocyte cell death” value in experiment [1] was “increased; also recorded: potentiated”. In addition, the “ATP concentration after OGD” value in experiment [2] (1h OGD, ARL67156 100 µM, percentage vs control, OGD alone 181.2 ± 25.3 %) came out at 439.6 ± 71.0%. Further, the “ATP release after 1h OGD” value in experiment [2] (ARL67156 100 µM) is “potentiated”.
Take `O=C(O)c1ccccc1Nc1cccc(C(F)(F)F)c1` [FFA, 2-[3-(trifluoromethyl)anilino]benzoic acid]: in the experiment on optic nerves, the “ischaemia-induced damage to optic nerves (LDH release)” value is reported as “reduced; also recorded: attenuated”. Further, in experiment [1], the “OGD-induced oligodendrocyte cell death” value is reported as “inhibited”. For the same compound, the “ATP levels after OGD” value in experiment [2] (1h OGD in the presence of ARL67156, CBX 20 µM, FFA 100 µM, MFQ 1 nM (figure legend)) is recorded as “significantly reduced”.
Take `NC(N)=NC(=O)c1nc(Cl)c(N2CCCCCC2)nc1N` [HMA]: at P2X7, the IC50 is 4500 nM.
Regarding `CN([C@@H](Cc1ccc(OS(=O)(=O)c2cccc3cnccc23)cc1)C(=O)N1CCN(c2ccccc2)CC1)S(=O)(=O)c1cccc2cnccc12` [KN-62, ester of 4-[(2S)-2-[(5-isoquinolinylsulfonyl)methylamino]-3-oxo-3-(4-phenyl-1-piperazinyl)propyl] phenyl isoquinolinesulfonic acid], at P2X7, the IC50 was 15 nM.
Turning to `Cc1nc(N=Nc2cc(S(=O)(=O)O)ccc2S(=O)(=O)O)c2c(c1O)COP(=O)(O)OC2` [MRS2220, cyclic pyridoxine-alpha.4,5-monophosphate-6-azo-phenyl-2',5'disulfonate], the figures for the IC50 on P2X1 and at P2X3 were 10000 nM and 58000 nM, respectively.
As for `O=C(Nc1ccc(C(=O)Nc2ccc(C(=O)Nc3ccc(S(=O)(=O)O)c4cc(S(=O)(=O)O)cc(S(=O)(=O)O)c34)cc2)cc1)Nc1ccc(C(=O)Nc2ccc(C(=O)Nc3ccc(S(=O)(=O)O)c4cc(S(=O)(=O)O)cc(S(=O)(=O)O)c34)cc2)cc1` [NF279], the IC50 is 2800 nM on P2X7, 770 nM on P2X2, 2000 nM at P2X1 and 1600 nM at P2X3.
As to `O=C(Nc1cc(C(=O)Nc2ccc(S(=O)(=O)O)cc2S(=O)(=O)O)cc(C(=O)Nc2ccc(S(=O)(=O)O)cc2S(=O)(=O)O)c1)Nc1cc(C(=O)Nc2ccc(S(=O)(=O)O)cc2S(=O)(=O)O)cc(C(=O)Nc2ccc(S(=O)(=O)O)cc2S(=O)(=O)O)c1` [NF449, octasodium salt of 4,4',4",4"'-(carbonylbis(imino-5,1,3-benzenetriylbis(carbonylimino)))tetrakis-benzene-1,3-disulfonic acid], at P2X3, the IC50 was less than 6 nM.
In the case of `Cc1nc(N=Nc2cc(S(=O)(=O)O)c3cc([N+](=O)[O-])cc(S(=O)(=O)O)c3c2)c(CO[P+]([O-])(O)O)c(C=O)c1O` [PPNDS], the IC50 on P2X2 is 15 nM.
As for `Cc1ccc(C(=O)Nc2ccc(S(=O)(=O)O)c3cc(S(=O)(=O)O)cc(S(=O)(=O)O)c23)cc1NC(=O)c1cccc(NC(=O)Nc2cccc(C(=O)Nc3cc(C(=O)Nc4ccc(S(=O)(=O)O)c5cc(S(=O)(=O)O)cc(S(=O)(=O)O)c45)ccc3C)c2)c1` [Suramin, hexasodium salt of 8,8'-[carbonylbis[imino-3,1-phenylenecarbonylimino(4-methyl-3,1-phenylene)carbonylimino]] bisnaphthalene-1,3,5-trisulphonic acid], the results for the IC50 at P2X2 and on P2X6 were 1000 to 5000 nM and greater than 100000 nM, respectively.
Regarding `Nc1ncnc2c1ncn2[C@@H]1O[C@H](COP(=O)(O)OP(=O)(O)OP(=O)(O)O)[C@H]2OC3(O[C@H]21)C([N+](=O)[O-])=CC(=[N+]([O-])[O-])C=C3[N+](=O)[O-]` (stereo partly shown) [TNP-ATP, monolithium salt of 2',3'-O-2,4,6-trinitrophenyl-adenosine 5'-triphosphate], at P2X7, the IC50 was greater than 30000 nM.
Turning to `Cc1nc(/N=N/c2cc(S(=O)(=O)O)ccc2S(=O)(=O)O)c(COP(=O)(O)O)c(C=O)c1O` [isoPPADS, tetrasodium salt of pyridoxalphosphate-6-azophenyl-1',4'-disulfonic acid], the IC50 was 1000 to 5000 nM on P2X1 and 1000 nM at P2X3.
